Test results published in ChEMBL document CHEMBL4422630, “Identification of substituted 5-membered heterocyclic compounds as potential anti-leukemic agents” (Eur J Med Chem, 2019).
Activity calls are given as the source filed them. No cut-off for these calls is given here.

Columns and labels:
[1] = Therapeutic index, ratio of EC50 for human BJ cells to EC50 for mouse B-ALL cells expressing wild type BCR-ABL; assay type: toxicity; conditions: human BJ cells versus mouse B-ALL cells expressing wild type BCR-ABL; read-out: Ratio EC50
KOPN-8 [2] = assay: Antiproliferative activity against human KOPN8 assessed as reduction in cell viability after 72 hrs by CellTiter-Glo assay; assay type: functional, cell-based; conditions: KOPN-8, 72 h
B-ALL [3] = assay: Antiproliferative activity against mouse B-ALL BCR-ABL double knockout cells assessed as reduction in cell viability after 72 hrs by CellTiter-Glo assay; assay type: functional, cell-based
K562 = assay: Antiproliferative activity against human K562 assessed as reduction in cell viability after 72 hrs by CellTiter-Glo assay; assay type: functional, cell-based; conditions: K562, 72 h
BJ = assay: Antiproliferative activity against human BJ assessed as cell viability after 72 hrs by CellTiter-Glo assay; assay type: functional, cell-based
UoC-B1 = assay: Antiproliferative activity against human UOCB1 assessed as reduction in cell viability after 72 hrs by CellTiter-Glo assay; assay type: functional, cell-based; conditions: UoC-B1, 72 h
NALM-6 = assay: Antiproliferative activity against human NALM6 assessed as reduction in cell viability after 72 hrs by CellTiter-Glo assay; assay type: functional, cell-based; conditions: NALM-6, 72 h
B-ALL [4] = assay: Antiproliferative activity against mouse B-ALL cells expressing wild type BCR-ABL assessed as reduction in cell viability after 72 hrs by CellTiter-Glo assay; assay type: functional, cell-based
SUP-B15 [5] = assay: Antiproliferative activity against human SUP-B15 assessed as reduction in cell viability after 72 hrs by CellTiter-Glo assay; assay type: functional, cell-based; conditions: SUP-B15, 72 h
MV4-11 = assay: Antiproliferative activity against human MV411 assessed as reduction in cell viability after 72 hrs by CellTiter-Glo assay; assay type: functional, cell-based; conditions: MV4-11, 72 h
[6] = Permeability of compound at pH 7.4 by PAMPA; assay type: ADME
KOPN-8 [7] = assay: Cell cycle arrest in human KOPN8 cells at 5 uM after 24 hrs by propidium iodide staining-based flow cytometric analysis; assay type: functional
SUP-B15 [8] = assay: Induction of apoptosis in human SUP-B15 cells assessed as late apoptotic cells level after 24 hrs by Annexin V and propidium iodide staining based flow cytometry (reference value: 13.5%); assay type: functional
[9] = Half life in mouse plasma; assay type: ADME, cell-free
KOPN-8 [10] = assay: Induction of apoptosis in human KOPN8 cells assessed as late apoptotic cells level after 24 hrs by Annexin V and propidium iodide staining based flow cytometry (reference value: 96.4%); assay type: functional
SUP-B15 [11] = assay: Induction of apoptosis in human SUP-B15 cells assessed as decrease in cell viability at […] after 24 hrs by ApoTox-Glo triplex assay; assay type: functional, cell-based
[12] = Permeability of compound at pH 7.4 assessed as drug retention by PAMPA; assay type: ADME
SUP-B15 [13] = assay: Cytotoxicity in human SUP-B15 cells assessed as decrease in cell viability after 24 hrs by bis-AAF-RF110 dye based assay; assay type: functional
KOPN-8 [14] = assay: Cell cycle arrest in human KOPN8 cells assessed as increase in accumulation of cells at S phase at 5 uM after 24 hrs by propidium iodide staining-based flow cytometric analysis; assay type: functional
[15] = Apparent permeability of compound form apical to basolateral side in human Caco2 cells; assay type: ADME, cell-based; conditions: Caco-2
[16] = Apparent permeability of compound form basolateral to apical side in human Caco2 cells; assay type: ADME, cell-based; conditions: Caco-2
[17] = Intrinsic clearance in human microsomes; assay type: ADME, Microsome
[18] = Intrinsic clearance in mouse microsomes; assay type: ADME, Microsome
MDA-MB-231 [19] = assay: Cytotoxicity against human MDA-MB-231 cells up to 30 uM after 24 hrs by propidium iodide staining-based fluorescence assay; assay type: functional, cell-based
MDA-MB-231 [20] = assay: Cytotoxicity against human MDA-MB-231 cells at 30 uM after 24 hrs by propidium iodide staining-based fluorescence assay; assay type: functional, cell-based
[21] = Half life in mouse microsomes; assay type: ADME, Microsome
SUP-B15 [22] = assay: Induction of apoptosis in human SUP-B15 cells assessed as late apoptotic cells level after 24 hrs by Annexin V and propidium iodide staining based flow cytometry (reference value: 83%); assay type: functional
[23] = Efflux ratio of apparent permeability across basolateral to apical side over apical to basolateral side in human Caco2 cells; assay type: ADME, cell-based; conditions: Caco-2
[24] = Half life in human plasma; assay type: ADME, cell-free
SUP-B15 [25] = assay: Induction of apoptosis in human SUP-B15 cells assessed as decrease in cell viability at 5 uM after 24 hrs by Annexin V/propidium iodide staining-based flow cytometric analysis; assay type: functional
SUM149PT = assay: Cytotoxicity against human SUM149 cells at 1 uM after 24 hrs by propidium iodide staining-based fluorescence assay relative to control; assay type: functional, cell-based
KOPN-8 [26] = assay: Induction of apoptosis in human KOPN8 cells assessed as decrease in cell viability at 5 uM after 24 hrs by Annexin V/propidium iodide staining-based flow cytometric analysis; assay type: functional
SUP-B15 [27] = assay: Induction of apoptosis in human SUP-B15 cells assessed as increase in caspase 3/7 activity after 24 hrs by caspase-Glo 3/7 reagent based luminescence assay; assay type: functional, cell-based
[28] = Half life in human microsomes; assay type: ADME, Microsome
B-ALL [29] = assay: Induction of apoptosis in mouse B-ALL BCR-ABL double knockout cells assessed as increase in caspase 3/7 activity after 24 hrs by caspase-Glo 3/7 reagent based luminescence assay; assay type: functional, cell-based
KOPN-8 [30] = assay: Induction of apoptosis in human KOPN8 cells assessed as late apoptotic cells level after 24 hrs by Annexin V and propidium iodide staining based flow cytometry (reference value: 2%); assay type: functional
SUP-B15 [31] = assay: Cell cycle arrest in human SUP-B15 cells assessed as accumulation of cells at G1/G0 phase at 5 uM after 24 hrs by propidium iodide staining-based flow cytometric analysis; assay type: functional
[32] = Half life in simulated gastric fluid; assay type: ADME

`CCN(CC)c1ccc(-n2cnnc2-c2cccc(O)c2)cc1` showed a selectivity ratio [1] greater than 24, an EC50 (KOPN-8 [2]) greater than 49.1 µM and an EC50 (B-ALL [3]) greater than 49.1 µM. It also gave an EC50 (K562) of 1.07 µM, an EC50 (BJ) greater than 49.2 µM and an EC50 (UoC-B1) of 1.78 µM. The EC50 (NALM-6) was 1.06 µM, the EC50 (B-ALL [4]) was 2.03 µM and the EC50 (SUP-B15 [5]) was greater than 49.1 µM. The EC50 (MV4-11) was 0.85 µM.
For `CC(C)C(=O)Nc1ccc2oc(-c3ccc(C(C)(C)C)cc3)nc2c1`, the Peff [6] was 1916.4 ×10⁻⁶ cm/s, the Activity (KOPN-8 [7]) was “inactive” and the Activity (SUP-B15 [8]) was 6.3%. The selectivity ratio [1] was greater than 9, the half-life [9] was greater than 48 h and the Activity (KOPN-8 [10]) was 94.4%. For the same molecule, the EC50 (KOPN-8 [2]) was 1.11 µM, the Activity (SUP-B15 [11]) was “Active” and the permeability [12] was 53.6%. The Activity (SUP-B15 [13]) was “Active”, the Activity (KOPN-8 [14]) was “Active” and the Papp A→B [15] was 7.26 ×10⁻⁶ cm/s. For the same molecule, the EC50 (B-ALL [3]) was greater than 43.3 µM, the EC50 (K562) was 8.36 µM and the Papp B→A [16] was 2.26 ×10⁻⁶ cm/s. It also gave a CLint scaled [17] of 24.3 mL/min/kg, an EC50 (BJ) greater than 43.3 µM and a CLint scaled [18] of 16.8 mL/min/kg. The EC50 (UoC-B1) was greater than 43.3 µM, the Activity (MDA-MB-231 [19]) was “inactive” and the Activity (MDA-MB-231 [20]) was “Active”. The half-life [21] was 3.41 h, the Activity (SUP-B15 [22]) was 69.2% and the efflux ratio [23] was 0.31. For the same molecule, the half-life [24] was greater than 48 h, the EC50 (NALM-6) was 0.604 µM and the Activity (SUP-B15 [25]) was “Active”. The Activity (SUM149PT) was “Active”, the EC50 (B-ALL [4]) was 4.65 µM and the Activity (KOPN-8 [26]) was “Active”. The Activity (SUP-B15 [27]) was “Active”, the EC50 (SUP-B15 [5]) was 1.32 µM and the half-life [28] was 0.86 h. For the same molecule, the Activity (B-ALL [29]) was “inactive”, the EC50 (MV4-11) was 0.603 µM and the Activity (KOPN-8 [30]) was 4.8%. For the same molecule, the Activity (SUP-B15 [31]) was “Active” and the half-life [32] was greater than 48 h.
`NC(=O)c1sccc1Nc1[nH]c(Nc2cccc(OC(F)(F)F)c2)nc2nncc1-2` gave a selectivity ratio [1] of 5, an EC50 (KOPN-8 [2]) of 13.1 µM and an EC50 (B-ALL [3]) of 14.6 µM. For the same molecule, the EC50 (BJ) was 17 µM, the EC50 (UoC-B1) was 12.9 µM and the EC50 (NALM-6) was 0.005 µM. It also gave an EC50 (B-ALL [4]) of 3.14 µM and an EC50 (SUP-B15 [5]) greater than 43.3 µM.
With `CC[C@]1(O)C[C@@H]2CN(CCc3c([nH]c4ccccc34)[C@@](C(=O)OC)(c3cc4c(cc3OC)N(C)[C@H]3[C@@](O)(C(=O)OC)[C@H](OC(C)=O)[C@]5(CC)C=CCN6CC[C@]43[C@@H]65)C2)C1` [VINBLASTINE] the Papp A→B [15] was 0.621 ×10⁻⁶ cm/s, the Papp B→A [16] was 13.1 ×10⁻⁶ cm/s and the efflux ratio [23] was 21.1.
In the case of `CC1CC(OC(=O)C(O)c2ccccc2)CC(C)(C)N1C` (configuration not stated) [EUCATROPINE], the half-life [9] is reported as 2.11 h and the half-life [24] is reported as 0.42 h.
With `CS(=O)(=O)c1ccc(-c2cccc3c2OC(CNC(=O)c2ccccc2F)C3)cc1` (configuration not stated) the selectivity ratio [1] was greater than 5, the EC50 (KOPN-8 [2]) was greater than 43.3 µM and the EC50 (B-ALL [3]) was 36.4 µM. It also gave an EC50 (BJ) greater than 43.3 µM, an EC50 (UoC-B1) greater than 43.3 µM and an EC50 (NALM-6) of 1.75 µM. For the same molecule, the EC50 (B-ALL [4]) was 8.88 µM and the EC50 (SUP-B15 [5]) was greater than 43.3 µM.
`COc1ccc(O)c(-c2cc(-c3cc(Cl)ccc3O)[nH]n2)c1` gave a selectivity ratio [1] of 5, an EC50 (KOPN-8 [2]) of 15.8 µM and an EC50 (B-ALL [3]) of 11.2 µM. For the same molecule, the EC50 (BJ) was 25.1 µM, the EC50 (UoC-B1) was 13.6 µM and the EC50 (NALM-6) was 0.005 µM. It also gave an EC50 (B-ALL [4]) of 4.94 µM and an EC50 (SUP-B15 [5]) greater than 43.3 µM.
Molecule `NC(=O)N1c2ccccc2C=Cc2ccccc21` [CARBAMAZEPINE] has a Papp ([6]; read-out: Peff) of 266 ×10⁻⁶ cm/s, a permeability [12] of 21.9% and a Papp A→B [15] of 52.4 ×10⁻⁶ cm/s. The Papp B→A [16] was 41.8 ×10⁻⁶ cm/s and the efflux ratio [23] was 0.8.
Work on `c1ccc2[nH]c(-c3ccc(-c4nc5ccccc5[nH]4)nc3)nc2c1` yielded a selectivity ratio [1] greater than 5, an EC50 (KOPN-8 [2]) of 1.78 µM and an EC50 (B-ALL [3]) of 34.2 µM. The EC50 (K562) was 7.33 µM, the EC50 (BJ) was greater than 43.3 µM and the EC50 (UoC-B1) was greater than 43.3 µM. The EC50 (NALM-6) was 2.47 µM, the EC50 (B-ALL [4]) was 7.89 µM and the EC50 (SUP-B15 [5]) was 1.81 µM. For the same molecule, the EC50 (MV4-11) was 13.7 µM.
